Reference: patent US7704995B2 (Exelixis, Inc., priority 2003, dated 2010)

Target: T1, Chk1 (Homo sapiens, UniProt O14757)
T1 construct: purchased Upstate Biotechnology
T1 sequence (O14757 1-476): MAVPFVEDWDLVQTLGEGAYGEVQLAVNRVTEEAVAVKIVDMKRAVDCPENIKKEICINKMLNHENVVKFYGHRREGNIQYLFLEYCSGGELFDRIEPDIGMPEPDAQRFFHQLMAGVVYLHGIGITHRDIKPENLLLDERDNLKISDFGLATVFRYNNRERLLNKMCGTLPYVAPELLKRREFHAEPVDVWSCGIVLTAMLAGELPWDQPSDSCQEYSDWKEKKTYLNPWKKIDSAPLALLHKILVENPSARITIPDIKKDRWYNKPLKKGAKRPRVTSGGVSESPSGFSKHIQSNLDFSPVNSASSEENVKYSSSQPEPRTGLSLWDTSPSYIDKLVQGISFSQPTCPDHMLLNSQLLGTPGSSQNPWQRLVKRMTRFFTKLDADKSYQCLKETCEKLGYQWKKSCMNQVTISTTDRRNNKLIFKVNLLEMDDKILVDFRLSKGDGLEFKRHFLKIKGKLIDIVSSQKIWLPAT
Experiment: Chk1 kinase assay: incorporation of γ-33P ATP into immobilized myelin basic protein
Assay type: biochemical
Settings: Table 11, Chk1 only; class symbols A-D; read-out: Chk1 IC50
Summary of the method: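 MBP coated on plates (20 μg/ml) was phosphorylated by Chk1 (10 nM) or Chk2 (20 nM) with γ-33P ATP plus 10 μM (Chk1) or 30 μM (Chk2) unlabeled ATP, 1 h at room temperature, 1% DMSO. Bound radioactivity was counted by scintillation after washing; IC50 or Ki derived from fitted rate data.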

Nc1ncc(-c2cccc(C(=O)NCc3c(F)ccc(F)c3F)c2)nc1C(=O)N[C@H]1CCNC1 [Example 815, 3-amino-N-[(3S)-pyrrolidin-3-yl]-6-[3-({[(2,3,6-trifluorophenyl)methyl]amino}carbonyl)phenyl]pyrazine-2-carboxamide]
IC50: 50 to 1000 nM

Nc1ncc(-c2cccc(C(=O)NCc3cc(F)cc(F)c3F)c2)nc1C(=O)N[C@H]1CCNC1 [Example 816, 3-amino-N-[(3S)-pyrrolidin-3-yl]-6-[3-({[(2,3,5-trifluorophenyl)methyl]amino}carbonyl)phenyl]pyrazine-2-carboxamide]
IC50: 50 to 1000 nM

Nc1ncc(-c2cccc(C(=O)NCc3ccc(F)c(Br)c3)c2)nc1C(=O)N[C@H]1CCNC1 [Example 817, 3-amino-6-[3-({[(3-bromo-4-fluorophenyl)methyl]amino}carbonyl)phenyl]-N-[(3S)-pyrrolidin-3-yl]pyrazine-2-carboxamide]
IC50: < 50 nM

CN1CCCC(c2n[nH]c(-c3nc(-c4cccc(C(=O)NCc5c(F)cccc5Cl)c4)cnc3N)n2)C1 (centres unmarked) [Example 818, 3-{5-amino-6-[3-(1-methylpiperidin-3-yl)-1H-1,2,4-triazol-5-yl]pyrazin-2-yl}-N-[(2-chloro-6-fluorophenyl)methyl]benzamide]
IC50: 1000 to 10000 nM

Nc1ncc(-c2cccc(CN[C@H]3CCc4ccccc43)c2)nc1C(=O)NC1CN2CCC1CC2 (stereo partly drawn) [Example 819, 3-amino-N-1-azabicyclo[2.2.2]oct-3-yl-6-(3-{[(1S)-2,3-dihydro-1H-inden-1-ylamino]methyl}phenyl)pyrazine-2-carboxamide]
IC50: 50 to 1000 nM

Nc1ncc(-c2cccc(C(=O)NCc3ccc(Cl)cc3F)c2)nc1-c1nc([C@H]2CCCNC2)n[nH]1 [Example 820, 3-(5-amino-6-{3-[(3S)-piperidin-3-yl]-1H-1,2,4-triazol-5-yl}pyrazin-2-yl)-N-[(4-chloro-2-fluorophenyl)methyl]benzamide]
IC50: < 50 nM

Nc1ncc(-c2cccc(C(=O)NCc3ccccc3Cl)c2)nc1-c1nc([C@H]2CCCNC2)n[nH]1 [Example 821, 3-(5-amino-6-{3-[(3S)-piperidin-3-yl]-1H-1,2,4-triazol-5-yl}pyrazin-2-yl)-N-[(2-chlorophenyl)methyl]benzamide]
IC50: < 50 nM

CC(C)(C)OC(=O)N1CC[C@H](NC(=O)c2nc(-c3cccc(C(=O)NCc4ccc(Cl)cc4Cl)c3)cnc2N)C1 [Example 822, 1,1-dimethylethyl (3S)-3-[({3-amino-6-[3-({[(2,4-dichlorophenyl)methyl]amino}carbonyl)phenyl]pyrazin-2-yl}carbonyl)amino]pyrrolidine-1-carboxylate]
IC50: 1000 to 10000 nM

CC(C)(C)OC(=O)N1CC[C@H](NC(=O)c2nc(-c3cccc(C(=O)NCc4ccc(Cl)c(Cl)c4)c3)cnc2N)C1 [Example 823, 1,1-dimethylethyl (3S)-3-[({3-amino-6-[3-({[(3,4-dichlorophenyl)methyl]amino}carbonyl)phenyl]pyrazin-2-yl}carbonyl)amino]pyrrolidine-1-carboxylate]
IC50: 1000 to 10000 nM

Nc1ncc(-c2cccc(CN[C@H]3CCc4ccccc43)c2)nc1-c1nc(C2CCCNC2)cs1 (stereo partly drawn) [Example 824, 5-(3-{[(1S)-2,3-dihydro-1H-inden-1-ylamino]methyl}phenyl)-3-(4-piperidin-3-yl-1,3-thiazol-2-yl)pyrazin-2-amine]
IC50: ≥ 10000 nM

Nc1ncc(-c2cccc(C(=O)NCc3ccc(Cl)cc3Cl)c2)nc1C(=O)N[C@H]1CCNC1 [Example 825, 3-amino-6-[3-({[(2,4-dichlorophenyl)methyl]amino}carbonyl)phenyl]-N-[(3S)-pyrrolidin-3-yl]pyrazine-2-carboxamide]
IC50: < 50 nM

Nc1ncc(-c2cccc(C(=O)NCc3ccc(Cl)c(Cl)c3)c2)nc1C(=O)N[C@H]1CCNC1 [Example 826, 3-amino-6-[3-({[(3,4-dichlorophenyl)methyl]amino}carbonyl)phenyl]-N-[(3S)-pyrrolidin-3-yl]pyrazine-2-carboxamide]
IC50: < 50 nM

Nc1ncc(-c2cccc(C(=O)NCc3c(F)cccc3F)c2)nc1-c1nc([C@H]2CCCNC2)n[nH]1 [Example 827, 3-(5-amino-6-{3-[(3S)-piperidin-3-yl]-1H-1,2,4-triazol-5-yl}pyrazin-2-yl)-N-[(2,6-difluorophenyl)methyl]benzamide]
IC50: 50 to 1000 nM

Nc1ncc(-c2cccc(C(=O)NCc3c(F)cccc3Cl)c2)nc1-c1nc([C@H]2CCCNC2)n[nH]1 [Example 828, 3-(5-amino-6-{3-[(3S)-piperidin-3-yl]-1H-1,2,4-triazol-5-yl}pyrazin-2-yl)-N-[(2-chloro-6-fluorophenyl)methyl]benzamide]
IC50: 50 to 1000 nM

Nc1ncc(-c2cccc(C(=O)NCc3cc(Cl)ccc3Cl)c2)nc1-c1nc([C@H]2CCCNC2)n[nH]1 [Example 829, 3-(5-amino-6-{3-[(3S)-piperidin-3-yl]-1H-1,2,4-triazol-5-yl}pyrazin-2-yl)-N-[(2,5-dichlorophenyl)methyl]benzamide]
IC50: 50 to 1000 nM

Nc1ncc(-c2cccc(C(=O)NCc3ccc(Cl)c(Cl)c3)c2)nc1-c1nc([C@H]2CCCNC2)n[nH]1 [Example 830, 3-(5-amino-6-{3-[(3S)-piperidin-3-yl]-1H-1,2,4-triazol-5-yl}pyrazin-2-yl)-N-[(3,4-dichlorophenyl)methyl]benzamide]
IC50: < 50 nM

COc1ccc(CNC(=O)c2cccc(-c3cnc(N)c(C(=O)N[C@H]4CCCNC4)n3)c2)cc1 [Example 831, 3-amino-6-{3-[({[4-(methyloxy)phenyl]methyl}amino)carbonyl]phenyl}-N-[(3S)-piperidin-3-yl]pyrazine-2-carboxamide]
IC50: < 50 nM

Nc1ncc(-c2cccc(C(=O)NCc3ccc(Cl)cc3Cl)c2)nc1C(=O)N[C@H]1CCCNC1 [Example 832, 3-amino-6-[3-({[(2,4-dichlorophenyl)methyl]amino}carbonyl)phenyl]-N-[(3S)-piperidin-3-yl]pyrazine-2-carboxamide]
IC50: < 50 nM

CC(C)(C)OC(=O)NCc1cccc(-c2cnc(N)c(C(=O)N[C@H]3CCCN(C(=O)OC(C)(C)C)C3)n2)c1 [Example 833, 1,1-dimethylethyl (3S)-3-{[(3-amino-6-{3-[({[(1,1-dimethylethyl)oxy]carbonyl}amino)methyl]phenyl}pyrazin-2-yl)carbonyl]amino}piperidine-1-carboxylate]
IC50: 50 to 1000 nM

Nc1ncc(-c2cccc(C(=O)NCc3ccccc3F)c2)nc1-c1nnc([C@H]2CCCNC2)[nH]1 [Example 834, 3-(5-amino-6-{5-[(3S)-piperidin-3-yl]-4H-1,2,4-triazol-3-yl}pyrazin-2-yl)-N-[(2-fluorophenyl)methyl]benzamide]
IC50: < 50 nM

Nc1ncc(-c2cccc(C(=O)NCc3cccc(F)c3)c2)nc1-c1nnc([C@H]2CCCNC2)[nH]1 [Example 835, 3-(5-amino-6-{5-[(3S)-piperidin-3-yl]-4H-1,2,4-triazol-3-yl}pyrazin-2-yl)-N-[(3-fluorophenyl)methyl]benzamide]
IC50: < 50 nM

Nc1ncc(-c2cccc(C(=O)NCc3ccc(F)cc3)c2)nc1-c1nnc([C@H]2CCCNC2)[nH]1 [Example 836, 3-(5-amino-6-{5-[(3S)-piperidin-3-yl]-4H-1,2,4-triazol-3-yl}pyrazin-2-yl)-N-[(4-fluorophenyl)methyl]benzamide]
IC50: < 50 nM

Nc1ncc(-c2cccc(C(=O)NCc3cccc(Cl)c3)c2)nc1-c1nnc([C@H]2CCCNC2)[nH]1 [Example 837, 3-(5-amino-6-{5-[(3S)-piperidin-3-yl]-4H-1,2,4-triazol-3-yl}pyrazin-2-yl)-N-[(3-chlorophenyl)methyl]benzamide]
IC50: < 50 nM

Nc1ncc(-c2cccc(C(=O)NCc3ccc(Cl)cc3)c2)nc1-c1nnc([C@H]2CCCNC2)[nH]1 [Example 838, 3-(5-amino-6-{5-[(3S)-piperidin-3-yl]-4H-1,2,4-triazol-3-yl}pyrazin-2-yl)-N-[(4-chlorophenyl)methyl]benzamide]
IC50: < 50 nM

NCc1cccc(-c2cnc(N)c(C(=O)N[C@H]3CCCNC3)n2)c1 [Example 839, 3-amino-6-[3-(aminomethyl)phenyl]-N-[(3S)-piperidin-3-yl]pyrazine-2-carboxamide]
IC50: < 50 nM

Nc1ncc(-c2cccc(O)c2)nc1C(=O)N[C@H]1CCCNC1 [Example 840, 3-amino-6-(3-hydroxyphenyl)-N-[(3S)-piperidin-3-yl]pyrazine-2-carboxamide]
IC50: < 50 nM

CC(C)(C)OC(=O)N1CCC[C@H](NC(=O)c2nc(-c3cccc(CN)c3)cnc2N)C1 [Example 841, 1,1-dimethylethyl (3S)-3-[({3-amino-6-[3-(aminomethyl)phenyl]pyrazin-2-yl}carbonyl)amino]piperidine-1-carboxylate]
IC50: 50 to 1000 nM

Nc1ncc(-c2cccc(C(=O)NCc3ccc(F)cc3)c2)nc1C(=O)N[C@H]1CCCNC1 [Example 842, 3-amino-6-[3-({[(4-fluorophenyl)methyl]amino}carbonyl)phenyl]-N-[(3S)-piperidin-3-yl]pyrazine-2-carboxamide]
IC50: < 50 nM

Nc1ncc(-c2cccc(C(=O)NCc3ccc(OC(F)(F)F)cc3)c2)nc1C(=O)N[C@H]1CCCNC1 [Example 843, 3-amino-N-[(3S)-piperidin-3-yl]-6-(3-{[({4-[(trifluoromethyl)oxy]phenyl}methyl)amino]carbonyl}phenyl)pyrazine-2-carboxamide]
IC50: < 50 nM
